Measured values from ChEMBL document CHEMBL3351739, “Design, synthesis and biological evaluation of 6-(nitroimidazole-1H-alkyloxyl)-4-anilinoquinazolines as efficient EGFR inhibitors exerting cytotoxic effects both under normoxia and hypoxia” (Eur J Med Chem, 2015).

How the values were obtained:
HT-29 [1] = assay: Cytotoxicity against human HT-29 cells after 72 hrs under hypoxia conditions by SRB assay; format: functional, cell-based; details: HT-29, 72 h
[2] = target: Epidermal growth factor receptor (Homo sapiens, UniProt P00533); assay: Inhibition of wild type EGFR (unknown origin) by Z'-Lyte kinase assay
HT-29 [3] = assay: Cytotoxicity against human HT-29 cells after 72 hrs under normoxia conditions by SRB assay; format: functional, cell-based; details: HT-29, 72 h
[4] = Metabolic stability in mouse liver microsomes assessed as compound remaining at 5 uM after 30 mins under hypoxia conditions in presence of NADPH by HPLC method; format: ADME; details: read-out: Stability
[5] = Metabolic stability in mouse liver microsomes assessed as compound remaining at 5 uM after 30 mins under normoxia conditions in presence of NADPH by HPLC method; format: ADME; details: read-out: Stability
[6] = Reductive drug activation assessed as reactive radical formation at 4.1 umol in pH 7.4 PBS in presence of zinc dust and ammonium chloride by HPLC-Q-ToF-MS method; details: buffer

Chain of Epidermal growth factor receptor (P00533 whole entry): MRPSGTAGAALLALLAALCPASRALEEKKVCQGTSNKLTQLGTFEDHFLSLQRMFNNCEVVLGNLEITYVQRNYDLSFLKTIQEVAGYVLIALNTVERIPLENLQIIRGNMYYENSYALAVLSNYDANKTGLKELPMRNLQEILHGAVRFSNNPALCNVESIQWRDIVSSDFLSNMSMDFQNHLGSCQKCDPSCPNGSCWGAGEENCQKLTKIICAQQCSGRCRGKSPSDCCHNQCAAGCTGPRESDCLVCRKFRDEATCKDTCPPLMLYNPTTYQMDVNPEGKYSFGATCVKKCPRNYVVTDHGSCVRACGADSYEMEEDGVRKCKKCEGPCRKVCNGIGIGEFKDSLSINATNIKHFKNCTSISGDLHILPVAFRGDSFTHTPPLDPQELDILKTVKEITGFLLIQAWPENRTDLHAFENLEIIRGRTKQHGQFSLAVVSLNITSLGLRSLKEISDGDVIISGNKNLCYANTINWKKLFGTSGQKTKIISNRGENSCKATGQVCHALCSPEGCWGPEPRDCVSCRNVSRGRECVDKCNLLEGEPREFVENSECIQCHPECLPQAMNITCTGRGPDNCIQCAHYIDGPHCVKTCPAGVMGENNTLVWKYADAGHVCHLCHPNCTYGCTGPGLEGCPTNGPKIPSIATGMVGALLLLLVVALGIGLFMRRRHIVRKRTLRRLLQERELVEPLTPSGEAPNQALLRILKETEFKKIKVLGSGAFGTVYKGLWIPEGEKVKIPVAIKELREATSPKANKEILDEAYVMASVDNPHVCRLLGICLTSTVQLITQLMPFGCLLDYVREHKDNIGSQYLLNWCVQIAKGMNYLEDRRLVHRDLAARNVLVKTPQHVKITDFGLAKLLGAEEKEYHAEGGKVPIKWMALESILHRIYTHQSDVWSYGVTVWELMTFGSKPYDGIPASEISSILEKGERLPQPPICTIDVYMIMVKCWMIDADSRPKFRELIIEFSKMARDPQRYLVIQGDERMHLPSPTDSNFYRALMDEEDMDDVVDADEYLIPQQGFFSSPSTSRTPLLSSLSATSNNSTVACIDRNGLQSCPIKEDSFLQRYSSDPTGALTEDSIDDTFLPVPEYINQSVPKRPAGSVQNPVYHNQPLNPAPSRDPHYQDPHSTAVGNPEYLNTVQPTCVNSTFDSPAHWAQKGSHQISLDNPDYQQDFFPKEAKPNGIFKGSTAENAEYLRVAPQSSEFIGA

Compound	IC50 [2]	remaining at 0.5 h, 5 µM [4]	remaining at 0.5 h, 5 µM [5]	Drug metabolism [6]	IC50 (HT-29 [1])	IC50 (HT-29 [3])
COc1cc2ncnc(Nc3ccc(F)c(Cl)c3)c2cc1OCCn1c([N+](=O)[O-])cnc1C	0.0049 µM	–	–	–	> 50 µM	> 50 µM
COc1cc2ncnc(Nc3ccc(F)c(Cl)c3)c2cc1OCCCCCn1ccnc1[N+](=O)[O-]	0.00051 µM	–	–	–	5.59 µM	17.6 µM
COc1cc2ncnc(Nc3ccc(OCc4cccc(F)c4)c(Cl)c3)c2cc1OCCCn1ccnc1[N+](=O)[O-]	0.0383 µM	–	–	–	20 µM	15.5 µM
COc1cc2ncnc(Nc3ccc(F)c(Cl)c3)c2cc1OCCCCCCn1ccnc1[N+](=O)[O-]	–	–	–	–	9.81 µM	12.9 µM
COc1cc2ncnc(Nc3cccc(Br)c3)c2cc1OCCCn1ccnc1[N+](=O)[O-]	0.00066 µM	–	–	–	4.01 µM	4.48 µM
COc1cc2ncnc(Nc3ccc(F)c(Cl)c3)c2cc1OCCCCn1ccnc1[N+](=O)[O-]	0.00047 µM	< 10%	70%	metabolite_detected	1.62 µM	2.21 µM
C#Cc1cccc(Nc2ncnc3cc(OC)c(OCCCCCCn4ccnc4[N+](=O)[O-])cc23)c1	0.0005 µM	–	–	–	3.46 µM	2.93 µM
Nc1n[n+]([O-])c2ccccc2[n+]1[O-] [TIRAPAZAMINE]	–	–	–	–	9.45 µM	> 50 µM
COc1cc2ncnc(Nc3ccc(F)c(Cl)c3)c2cc1OCCCn1ccnc1[N+](=O)[O-]	0.00089 µM	–	–	–	7.17 µM	8.39 µM
COc1cc2ncnc(Nc3cccc(Br)c3)c2cc1OCCCn1c([N+](=O)[O-])cnc1C	0.00118 µM	–	–	–	5.41 µM	15.7 µM
COc1cc2ncnc(Nc3ccc(F)c(Cl)c3)c2cc1OCCCn1c([N+](=O)[O-])cnc1C	0.00343 µM	–	–	–	11.5 µM	23.2 µM

The next lines start with results.

IC50 [2]	remaining at 0.5 h, 5 µM [4]	remaining at 0.5 h, 5 µM [5]	Drug metabolism [6]	Compound	IC50 (HT-29 [1])	IC50 (HT-29 [3])
0.0285 µM	–	–	–	COc1cc2ncnc(Nc3ccc(OCc4cccc(F)c4)c(Cl)c3)c2cc1OCCCCn1ccnc1[N+](=O)[O-]	2.07 µM	1.87 µM
0.00305 µM	–	–	–	COc1cc2ncnc(Nc3ccc(F)c(Cl)c3)c2cc1OCCn1ccnc1[N+](=O)[O-]	10 µM	> 50 µM
0.00108 µM	–	–	–	C#Cc1cccc(Nc2ncnc3cc(OC)c(OCCCn4ccnc4[N+](=O)[O-])cc23)c1	5.53 µM	5.55 µM
0.0151 µM	–	–	–	COc1cc2ncnc(Nc3ccc(OCc4cccc(F)c4)c(Cl)c3)c2cc1OCCCCCCn1ccnc1[N+](=O)[O-]	24.3 µM	> 50 µM
0.00049 µM	–	–	–	C#Cc1cccc(Nc2ncnc3cc(OC)c(OCCCCCn4ccnc4[N+](=O)[O-])cc23)c1	3.05 µM	3.55 µM
0.00056 µM	–	–	–	C#Cc1cccc(Nc2ncnc3cc(OC)c(OCCCCn4ccnc4[N+](=O)[O-])cc23)c1	6.9 µM	10.1 µM
0.0512 µM	–	–	–	COc1cc2ncnc(Nc3ccc(OCc4cccc(F)c4)c(Cl)c3)c2cc1OCCCCCn1ccnc1[N+](=O)[O-]	1.36 µM	3.09 µM
–	> 90%	> 90%	–	COc1cc2ncnc(Nc3ccc(F)c(Cl)c3)c2cc1OCCCN1CCOCC1 [GEFITINIB]	–	–
0.00053 µM	–	–	–	COc1cc2ncnc(Nc3ccc(F)c(Cl)c3)c2cc1OCCCCn1c([N+](=O)[O-])cnc1C	9.98 µM	8.21 µM
